This test has as its target T1, NLRP3 (Homo sapiens, UniProt Q96P20).
T1 construct: host or cells: PMA-differentiated THP-1 cells
Description: Measurement of IL-1β production (NLRP3 hIL1β EC50), PMA-differentiated THP-1 cells. In kind it is cell-based. Conditions: human IL-1β production; assayed using one or more of the described procedures. The protocol: THP-1 cells were purchased from the American Type Culture Collection and sub-cultured according to instructions from the supplier. Prior to experiments, cells were cultured in RPMI 1640 containing 10% heat inactivated FBS, penicillin (100 units/ml) and streptomycin (100 μg/ml), and maintained in log phase prior to experimental setup. Prior to the experiment THIP-1 were treated with PMA (Phorbol 12-myristate 13-acetate) (10 μg/ml) for 24 hours. The day of the experiment the media was removed and attaching cells were treated with trypsin for 2 minutes, cells were then collected, washed with PBS (phosphate buffer saline), spin down, resuspended in 2% heat inactivated FBS with RPMI at a concentration of 1×10^6 cells/ml, and 100 μl was plated in a 96 well plate. Compounds were dissolved in dimethyl sulfoxide (DMSO) and added to the culture medium to achieve desired concentration (e.g. 100, 30, 10, 3, 1, 0.3 or 0.1 μM). Cells were incubated with compounds for 4 hours. Cell free supernatant was collected and the production of IL-1β was evaluated by ELISA. A vehicle only control was run concurrently with each experiment. Final DMSO concentration was 1%.
THP-1 cells were purchased from the American Type Culture Collection and sub-cultured according to instructions from the supplier. Prior to experiments, cells were cultured in RPMI 1640 containing 10% heat inactivated FBS, penicillin (100 units/ml), streptomycin (100 μg/ml), HEPES (10 mM) and sodium pyruvate (1 mM) and maintained in log phase prior to experimental setup. Prior to the experiment, THP-1 cells were treated with PMA (Phorbol 12-myristate 13-acetate) (20 μg/ml) overnight. The day of the experiment, the media was removed and attached cells were treated with trypsin for 2 minutes, cells were then collected, washed with PBS (phosphate buffer saline), pelleted by centrifugation and resuspended in 2% heat inactivated FBS with RPMI at a concentration of 50,000 cells/well in a 384 well plate. Cell free supernatant was collected and the production of IL-1β was evaluated by ELISA. Compounds were dissolved in dimethyl sulfoxide (DMSO) and added to the culture medium to achieve desired concentration (e.g. 100, 30, 10, 3, 1, 0.3 or 0.1 μM). Cells were incubated with compounds for 2 hours. A vehicle only control was run concurrently with each experiment. Final DMSO concentration was 1%.
Serial dilutions of compounds in DMSO were added to low volume 384 well plates at 100 nl/well using an ECHO 550 acoustic dispenser (Labcyte) to achieve final starting concentration of 10 μM in assay.
THP-1 cells in RPMI (Gibco, 11875) media with 10% FBS at a density of 1×10^6 cell/ml in a T175 flask were treated with a final concentration of phorbol 12-myristate 13-acetate (PMA) (Sigma,P1585) of 50 ng/ml overnight at 37° C. at 5% CO2 for differentiation. Cells were harvested the next day after rinsing well with dPBS using 0.5% trypsin. A cell solution was prepared of 1×10^6 cells/ml for 50,000 cells in 50 μl/well in RPMI media with 2% FBS. Cells were plated using a multichannel pipette onto the compound dilutions in Greiner, 384 well, black clear bottom tissue culture treated plates (781090). The plates were incubated in 37° C. incubator at 5% CO2 for 2 hours.
After the 2 hour incubation, the cell plates were spun in the centrifuge for 5 minutes at 1200 rpm. Using the Felix (CyBio), 8 μl of the supernatant was transferred to 384 well, low volume, white proxy plates. (Perkin Elmer, 6008230). A human IL1beta hTRF kit was used to analyze the supernatant (CISBIO, 62HIL1BPEG). The kit instructions were followed for preparing the IL1Beta standard curve and then the antibodies from the kit were diluted 1:40 rather than 1:20 as kit instructed. Once combined, the antibodies were added across the plates, 5 μl/well. The plates were sealed and incubated at 4° C. overnight. The plates were then read on the Perkin Elmer EnVision at 665/615 nm using the hTRF laser.

pEC50: −log10 of the molar value.

The record followed here is patent US12492200B2, “NLRP3 modulators” (INNATE TUMOR IMMUNITY, INC., priority 2020, dated 2025).

T1 sequence (Q96P20 whole entry): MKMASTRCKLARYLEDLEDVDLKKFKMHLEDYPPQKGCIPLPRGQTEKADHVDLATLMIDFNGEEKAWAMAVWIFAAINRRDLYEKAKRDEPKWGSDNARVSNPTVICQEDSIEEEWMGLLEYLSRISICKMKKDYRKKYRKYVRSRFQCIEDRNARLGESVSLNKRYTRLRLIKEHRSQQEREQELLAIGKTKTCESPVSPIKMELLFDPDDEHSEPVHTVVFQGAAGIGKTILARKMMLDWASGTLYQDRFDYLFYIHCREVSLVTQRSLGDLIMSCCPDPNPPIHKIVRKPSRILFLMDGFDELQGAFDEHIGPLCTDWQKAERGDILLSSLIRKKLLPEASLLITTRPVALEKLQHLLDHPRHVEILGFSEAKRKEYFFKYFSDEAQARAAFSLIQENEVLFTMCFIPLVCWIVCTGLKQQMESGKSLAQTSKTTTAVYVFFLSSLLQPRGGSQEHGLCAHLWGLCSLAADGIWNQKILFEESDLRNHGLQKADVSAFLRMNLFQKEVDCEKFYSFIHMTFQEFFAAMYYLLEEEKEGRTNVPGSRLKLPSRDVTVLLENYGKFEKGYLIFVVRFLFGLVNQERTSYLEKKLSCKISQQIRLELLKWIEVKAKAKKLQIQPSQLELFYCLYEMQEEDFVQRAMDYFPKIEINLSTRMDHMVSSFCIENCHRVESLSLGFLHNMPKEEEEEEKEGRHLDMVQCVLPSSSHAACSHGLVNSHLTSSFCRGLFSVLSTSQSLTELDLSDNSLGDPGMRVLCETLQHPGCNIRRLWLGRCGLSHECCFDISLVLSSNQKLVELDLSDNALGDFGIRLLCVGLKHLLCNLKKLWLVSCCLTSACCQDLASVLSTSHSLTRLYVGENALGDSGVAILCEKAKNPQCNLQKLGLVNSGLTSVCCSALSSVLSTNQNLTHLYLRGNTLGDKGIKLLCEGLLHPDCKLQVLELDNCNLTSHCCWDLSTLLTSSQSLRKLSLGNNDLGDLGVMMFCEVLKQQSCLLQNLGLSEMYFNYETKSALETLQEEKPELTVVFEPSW

For orientation: pEC50 means the EC50 on a negative log10 scale, so that one unit is a factor of ten. Read a high pEC50 as a small EC50. As to `CC(C)n1c([C@H]2CCCN(C(=O)c3ccccc3)C2)nc2c(N)nc3cc(-c4cc[nH]n4)ccc3c21` [Example 56], the pEC50 is 6.52. As for `CCCC(=O)N1CCC[C@@H]1Cc1nc2c(N)nc3cc(-c4cc[nH]n4)ccc3c2[nH]1` [Example 78], the figure is 5.24; as for `CC(C)CC(=O)N1CCC[C@@H](c2nc3c(N)nc4cc(-c5cc[nH]n5)ccc4c3[nH]2)C1` [Example 66], 5.46; as for `N#CC1(C(=O)N2CCC[C@@H]2Cc2nc3c(N)nc4cc(-c5cc[nH]n5)ccc4c3[nH]2)CCC1` [Example 82], 5.59. Then `Nc1nc2cc(-c3cc[nH]n3)ccc2c2[nH]c([C@@H]3CCCN(C(=O)C4CCC4)C3)nc12` [Example 8, (R)-(3-(4-Amino-7-(1H-pyrazol-3-yl)-1H-imidazo[4,5-c]quinolin-2-yl)piperidin-1-yl)(cyclobutyl)methanone], with 5.72; and `N#CC1(C(=O)N2CC[C@H](c3nc4c(N)nc5cc(-c6cc[nH]n6)ccc5c4[nH]3)C2)CC1` [Example 75], with 5.30. Then `COCC(=O)N1CCC[C@@H](c2nc3c(N)nc4cc(-c5cc[nH]n5)ccc4c3[nH]2)C1` [Example 64], with 5.00; and `CC(C)n1c([C@H]2CCCN(C(=O)C3(C#N)CC3)C2)nc2c(N)nc3cc(-c4cc[nH]n4)ccc3c21` [Example 55], with 6.64; and `CCN1CCC(Cc2nc3c(N)nc4cc(-c5cc[nH]n5)ccc4c3[nH]2)C1` (stereo not shown) [Example 21, 2-((1-Ethylpyrrolidin-3-yl)methyl)-7-(1H-pyrazol-3-yl)-1H-imidazo[4,5-c]quinolin-4-amine], with 6.06. Turning to `Nc1nc2cc(-c3cc[nH]n3)ccc2c2[nH]c(C[C@H]3CCCN3C(=O)c3ccccn3)nc12` [Example 85], the pEC50 is 5.23. Then `CCCC(=O)N1CCC[C@H](c2nc3c(N)nc4cc(-c5cc[nH]n5)ccc4c3n2CC)C1` [Example 42], with 6.66; and `CC(C)(C)OC(=O)N1CCC[C@@H]1Cc1nc2c(N)nc3cc(-c4cc[nH]n4)ccc3c2[nH]1` [Example 13, tert-Butyl (R)-2-((4-amino-7-(1H-pyrazol-3-yl)-1H-imidazo[4,5-c]quinolin-2-yl)methyl)pyrolidine-1-carboxylate], with 5.82; and `CCn1c([C@H]2CCCN(C(=O)Cc3ccccc3)C2)nc2c(N)nc3cc(-c4cc[nH]n4)ccc3c21` [Example 50], with 6.66. For `CCn1c([C@H]2CCCN(C(C)=O)C2)nc2c(N)nc3cc(-c4cc[nH]n4)ccc3c21` [Example 41], the negative-log EC50 (pEC50) is 6.11. Then `CC(C)C(=O)N1CC[C@H](c2nc3c(N)nc4cc(-c5cc[nH]n5)ccc4c3[nH]2)C1` [Example 72], with 5.51; and `COCCC(=O)N1CCC[C@H](c2nc3c(N)nc4cc(-c5cc[nH]n5)ccc4c3[nH]2)C1` [Example 35], with 5.74; and `Nc1nc2cc(-c3cc[nH]n3)ccc2c2[nH]c([C@H]3CCCN(C(=O)c4ccccc4)C3)nc12` [Example 31], with 5.82. Then `CCCC(=O)N1CCC[C@H](c2nc3c(N)nc4cc(-c5cc[nH]n5)ccc4c3n2C(C)C)C1` [Example 52], with 6.42. As for `CC(C)(C)OC(=O)N1CCC(c2nc3c(N)nc4cc(-c5cc[nH]n5)ccc4c3[nH]2)CC1` [Example 12, tert-Butyl 4-(4-amino-7-(1H-pyrazol-3-yl)-1H-imidazo[4,5-c]quinolin-2-yl)piperidine-1-carboxylate], the figure is 5.31; as for `CC(=O)N1CCC(Cc2nc3c(N)nc4cc(-c5cc[nH]n5)ccc4c3[nH]2)C1` (stereo not shown) [Example 20, 1-(3-((4-Amino-7-(1H-pyrazol-3-yl)-1H-imidazo[4,5-c]quinolin-2-yl)methyl)pyrrolidin-1-yl)ethan-1-one], 5.31. Consider `CC(C)n1c([C@H]2CCCN(C(=O)C3CC(F)(F)C3)C2)nc2c(N)nc3cc(-c4cc[nH]n4)ccc3c21` [Example 58], for which the pEC50 is 6.48.

As to `Nc1nc2cc(-c3cc[nH]n3)ccc2c2[nH]c([C@H]3CCCN(C(=O)C4CC4(F)F)C3)nc12` (stereo partly shown) [Example 33], the pEC50 was 6.00.

As to `CC(C)C(=O)N1CC[C@@H](c2nc3c(N)nc4cc(-c5cc[nH]n5)ccc4c3[nH]2)C1` [Example 11, (R)-1-(3-(4-Amino-7-(1H-pyrazol-3-yl)-1H-imidazo[4,5-c]quinolin-2-yl)pyrrolidin-1-yl)-2-methylpropan-1-one], the pEC50 was 5.15. As for `CCC(=O)N1CC[C@H](c2nc3c(N)nc4cc(-c5cc[nH]n5)ccc4c3[nH]2)C1` [Example 9, (S)-1-(3-(4-Amino-7-(1H-pyrazol-3-yl)-1H-imidazo[4,5-c]quinolin-2-yl)pyrrolidin-1-yl)propan-1-one], the figure is 5.18; as for `N#CC1(C(=O)N2CCC[C@H]2Cc2nc3c(N)nc4cc(-c5cc[nH]n5)ccc4c3[nH]2)CC1` [Example 92], 5.03. Then `N#CC1(C(=O)N2CCC[C@H](c3nc4c(N)nc5cc(-c6cc[nH]n6)ccc5c4[nH]3)C2)CCC1` [Example 37], with 5.33; and `COCCC(=O)N1CCC[C@H]1Cc1nc2c(N)nc3cc(-c4cc[nH]n4)ccc3c2[nH]1` [Example 90], with 5.22.

As for `Nc1nc2cc(-c3cc[nH]n3)ccc2c2[nH]c(C[C@H]3CCCN3)nc12` [Example 14, (R)-7-(1H-pyrazol-3-yl)-2-(pyrrolidin-2-ylmethyl)-1H-imidazo[4,5-c]quinolin-4-amine], the pEC50 was 6.96. Then `CC(C)C(=O)N1CCC[C@H]1Cc1nc2c(N)nc3cc(-c4cc[nH]n4)ccc3c2[nH]1` [Example 86], with 5.19; and `CC(=O)N1CCC[C@H](c2nc3c(N)nc4cc(-c5cc[nH]n5)ccc4c3n2C(C)C)C1` [Example 51], with 6.03; and `Nc1nc2cc(-c3cc[nH]n3)ccc2c2[nH]c([C@H]3CCN(C(=O)CC(F)(F)F)C3)nc12` [Example 74], with 5.17. Then `CC(C)n1c([C@H]2CCCN(C(=O)Cc3ccccc3)C2)nc2c(N)nc3cc(-c4cc[nH]n4)ccc3c21` [Example 57], with 6.40; and `CCC(=O)N1CCC[C@H](c2nc3c(N)nc4cc(-c5cc[nH]n5)ccc4c3n2CC)C1` [Example 4, (S)-1-(3-(4-Amino-1-ethyl-7-(1H-pyrazol-3-yl)-1H-imidazo[4,5-c]quinolin-2-yl)piperidin-1-yl)propan-1-one], with 6.59; and `C#CCC(=O)N1CCC[C@@H](c2nc3c(N)nc4cc(-c5cc[nH]n5)ccc4c3[nH]2)C1` [Example 65], with 6.46.

For `Nc1nc2cc(-c3cc[nH]n3)ccc2c2[nH]c([C@@H]3CCCN(C(=O)c4ccccc4)C3)nc12` [Example 67], the pEC50 is 5.74. As for `COCC(=O)N1CCC[C@@H]1Cc1nc2c(N)nc3cc(-c4cc[nH]n4)ccc3c2[nH]1` [Example 80], the figure is 5.18; as for `CCn1c([C@H]2CCCN(C(=O)CC(C)C)C2)nc2c(N)nc3cc(-c4cc[nH]n4)ccc3c21` [Example 43], 6.68. As for `CC(=O)N1CCC[C@H](c2nc3c(N)nc4cc(-c5cc[nH]n5)ccc4c3[nH]2)C1` [Example 24], the figure is 6.11; as for “tert-Butyl 3-((4-amino-7-(1H-pyrazol-1-yl)-1H-imidazo[4,5-c]quinolin-2-yl)methyl)pyrrolidine-1-carboxylate [Example 23]”, 5.66. As for `CC(C)C(=O)N1CCC[C@@H]1Cc1nc2c(N)nc3cc(-c4cc[nH]n4)ccc3c2[nH]1` [Example 79], the figure is 5.80.
